Results published in article PMC3199943, “Screening the MayBridge Rule of 3 Fragment Library for Compounds That Interact with the Trypanosoma brucei myo-Inositol-3-Phosphate Synthase and/or Show Trypanocidal Activity” (Molecular Biology International, 2011).
Like-named read-outs stand apart in the source and are kept apart here.

Legend:
TbINO1 = target: T1, TbINO1 (Trypanosoma brucei brucei, UniProt Q5QQ46); experiment: biochemical; format: binding; conditions: for Tb Ino1 Tm Shift [˚C]: Supplementary Table 1, compound 1mM, mean ± SD from Boltzman curve fitting
T1 sequence (Q5QQ46 1-528): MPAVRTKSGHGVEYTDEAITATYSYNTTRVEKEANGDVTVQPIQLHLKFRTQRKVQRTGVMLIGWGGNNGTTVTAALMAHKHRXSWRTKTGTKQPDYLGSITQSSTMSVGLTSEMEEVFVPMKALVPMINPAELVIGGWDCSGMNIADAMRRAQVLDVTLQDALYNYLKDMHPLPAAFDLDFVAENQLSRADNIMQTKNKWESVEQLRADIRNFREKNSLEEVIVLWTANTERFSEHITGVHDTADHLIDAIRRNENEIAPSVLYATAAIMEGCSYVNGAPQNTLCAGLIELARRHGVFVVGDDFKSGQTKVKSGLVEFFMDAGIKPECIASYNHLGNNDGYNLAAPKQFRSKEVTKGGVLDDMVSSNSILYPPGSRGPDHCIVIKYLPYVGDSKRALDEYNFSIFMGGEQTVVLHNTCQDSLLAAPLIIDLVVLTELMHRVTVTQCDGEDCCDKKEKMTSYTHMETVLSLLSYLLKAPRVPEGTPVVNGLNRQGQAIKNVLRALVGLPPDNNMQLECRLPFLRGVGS

HeLa cells = experiment: cells; conditions: for viability at 500 µM / CC50: Homo sapiens, HeLa; for viability at 500 µM: 65 h; for HeLa Cells Alamar Blue: Supplementary Table 1, compound 0.5 mM, percentage of controls, mean ± SD (n=3) or SE (n=2); for CC50: read-out: HeLa ED50
Method in brief: (§1)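 Alamar Blue read-out after a 5 h dye incubation that followed ~65 h compound exposure. Cells: HeLa or A549, 2 × 10^4/well, DMEM + 10% FCS + 2 mM L-Glutamine.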

A549 cells = experiment: Cytotoxicity against A549 cells, Alamar Blue; format: cell-based; conditions: Supplementary Table 1, compound 0.5 mM, percentage of controls (n=1); for viability at 500 µM: Homo sapiens, A549, 65 h
Method in brief: as §1

[1] = read-out: Tb Ino1 Tm Shift [˚C]
[2] = read-out: HeLa Cells Alamar Blue
[3] = read-out: HeLa Cells Alamar Blue (% survival)

| ΔTm at 1000 µM (TbINO1; [1]) [°C] | SMILES | viability at 500 µM (HeLa cells; [2]) [%] | viability at 500 µM (A549 cells) [%] | further results |
| --- | --- | --- | --- | --- |
| 0.17 ± 0.08 | OCc1ccc(N2CCOCC2)cc1 [compound 578, (4‐morpholin‐4‐yl‐phenyl)‐methanol] | 42.3 ± 9 | 75.4 | – |
| 0.99 ± 0.08 | CCOC(=O)Cc1csc(C)n1 [compound 494, ethyl 2‐(2‐methyl‐1,3‐thiazol‐4‐yl)acetate] | 103 ± 17.9 | 120 | – |
| 0.23 ± 0.07 | O=C1CCOCC1 [compound 12, tetrahydro‐4H‐pyran‐4‐one] | 100 ± 3.5 | 97.4 | – |
| 1.16 ± 0.06 | NC1=CC=C2OCOCC2C1 (centres unmarked) [compound 195, 4,5‐dihydro‐1,3‐benzodioxine‐6‐amine] | 77.4 ± 10.5 | 54.1 | – |
| 0.3 ± 0.07 | CC(=O)c1cc(Cl)sc1Cl [compound 590, 1‐(2,5‐dichloro‐3‐thienyl)ethan‐1‐one] | 97.7 ± 13.9 | 130 | – |
| – | Cc1cc(C(N)=S)n(C)n1 [compound 227, 1,3‐dimethyl‐1H‐pyrazole‐5‐carbothioamide] | – | – | Tb Ino1 Tm Shift [˚C] (TbINO1): 0.57 ± 0.1 °C; HeLa Cells Alamar Blue (HeLa cells): 106.7 ± 5.8 percentage of controls; A549 Cells Alamar Blue (A549 cells): 50.9 percentage of controls |
| 0.95 ± 0.06 | c1ccc(-c2cnco2)cc1 [compound 156, 5‐phenyl‐1,3‐oxazole] | 77.5 ± 18.3 | 104 | – |
| 0.63 ± 0.07 | Cn1ccc2c(C(=O)O)cccc21 [compound 399, 1‐methyl‐1H‐indole‐4‐carboxylic acid] | 99.3 ± 14.2 | 123 | – |
| 0.14 ± 0.07 | NCc1ccc(N2CCCC2)cc1 [compound 414, [4‐(1‐pyrrolidinyl)phenyl]methanamine] | 68 ± 13.7 | 96.8 | – |
| 0.22 ± 0.07 | CCCc1nccs1 [compound 82, 2‐propyl‐1,3‐thiazole] | 96.8 ± 11 | 114 | – |
| 0.1 ± 0.08 | N#Cc1cc(N)ccc1-n1cccc1 [compound 471, 5‐amino‐2‐(1H‐pyrrol‐1‐yl)benzonitrile] | 89.3 ± 18.8 | 81.4 | – |
| 0.38 ± 0.09 | COC(=O)c1sccc1N [compound 241, methyl 3‐aminothiophene‐2‐carboxylate] | 94.5 ± 13 | 108 | – |
| 0.07 ± 0.08 | COc1cccc(OC)c1SC [compound 481, 1,3‐dimethoxy‐2‐(methylthio)benzene] | 104 ± 17.6 | 103 | – |
| 0.02 ± 0.05 | Oc1ccc(F)c(Cl)c1 [compound 160, 3‐chloro‐4‐fluorophenol] | 94.9 ± 15.3 | 77.4 | – |
| – | OCc1ccc(-n2cccc2)cc1 [compound 372, [4-(1H-pyrrol-1-yl)phenyl]methanol] | 94.9 ± 19.4 | 52.9 | ΔTm at 1000 µM (TbINO1; read-out: TbIno1 Tm shift [°C]): 3.12 ± 0.04 °C; viability at 500 µM (HeLa cells; [3]): 94.9 ± 19.4%; CC50 (HeLa cells): 3300 ± 210 µM |
| – | CNCc1cc(-c2ccccc2)nn1C [compound 631, N‐methyl‐N‐[(1‐methyl‐3‐phenyl‐1H‐pyrazol‐5‐yl)methyl]amine] | – | – | Tb Ino1 Tm Shift [˚C] (TbINO1): 0.5 ± 0.08 °C; HeLa Cells Alamar Blue (HeLa cells): 66.2 ± 16.3 percentage of controls; A549 Cells Alamar Blue (A549 cells): 100.2 percentage of controls |
| 0.7 ± 0.08 | Cc1[nH]c2ccc(C(=O)O)cc2c1C [compound 537, 2,3‐dimethyl‐1H‐indole‐5‐carboxylic acid] | 89.3 ± 2.4 | 74.5 | – |
| 1.19 ± 0.08 | Cc1nn(C)c(C)c1N [compound 72, 1,3,5‐trimethyl‐1H‐pyrazol‐4‐amine] | 78.5 ± 0.8 | 70.9 | – |
| 0.54 ± 0.07 | Cc1cc(N)n(C)n1 [compound 26, 1,3‐dimethyl‐1H‐pyrazol‐5‐amine] | 85.5 ± 9.4 | 70.1 | – |
| 0.43 ± 0.07 | NC(=O)c1ccccc1C(F)(F)F [compound 532, 2‐(trifluoromethyl)benzamide] | 88.3 ± 6.5 | 59.4 | – |
| 0.22 ± 0.06 | COC(=O)c1c[nH]c2ccccc12 [compound 392, methyl 1H‐indole‐3‐carboxylate] | 110 ± 3.7 | 88.1 | – |

| ΔTm at 1000 µM (TbINO1; [1]) [°C] | SMILES | viability at 500 µM (HeLa cells; [2]) [%] | viability at 500 µM (A549 cells) [%] | further results |
| --- | --- | --- | --- | --- |
| 0.31 ± 0.05 | COC(=O)c1cccs1 [compound 138, methyl thiophene‐2‐carboxylate] | 89.4 ± 9.3 | 121 | – |
| 0.47 ± 0.04 | OC1CCC(C(F)(F)F)CC1 (centres unmarked) [compound 333, 4‐(trifluoromethyl)cyclohexan‐1‐ol] | 110 ± 4.4 | 114 | – |
| 0.62 ± 0.08 | Cc1cc(C(=O)O)c(C)o1 [compound 130, 2,5‐dimethyl‐3‐furoic acid] | 84.7 ± 0.7 | 121 | – |
| – | CC(=O)c1sc(C)nc1C [compound 226, 1‐(2,4‐dimethyl‐1,3‐thiazol‐5‐yl)ethan‐1‐one] | – | – | Tb Ino1 Tm Shift [˚C] (TbINO1): 0.37 ± 0.1 °C; HeLa Cells Alamar Blue (HeLa cells): 85.8 ± 10.4 percentage of controls; A549 Cells Alamar Blue (A549 cells): 62 percentage of controls |
| – | Cl.c1ccc2c(c1)CCNC2 [compound 343, 1,2,3,4‐tetrahydroisoquinoline hydrochloride] | – | – | Tb Ino1 Tm Shift [˚C] (TbINO1): 0.37 ± 0.06 °C; HeLa Cells Alamar Blue (HeLa cells): 83.5 ± 7.8 percentage of controls; A549 Cells Alamar Blue (A549 cells): 86.3 percentage of controls |
| 0.11 ± 0.08 | Cn1ccc(C(F)(F)F)n1 [compound 181, 1‐methyl‐3‐(trifluoromethyl)‐1H‐pyrazole] | 115 ± 9.9 | 58.4 | – |
| 0.78 ± 0.06 | COC(=O)c1cccc(N)c1 [compound 194, methyl 3‐aminobenzoate] | 88.3 ± 9.2 | 38.9 | – |
| 1.11 ± 0.07 | Nc1ccc(F)cc1F [compound 88, 2,4‐difluoroaniline] | 87.6 ± 10.6 | 132 | – |
| 0.44 ± 0.06 | CCC1CCC(N)CC1 (centres unmarked) [compound 84, 4‐ethylcyclohexanamine] | 90.7 ± 14.2 | 118 | – |
| – | Cc1nn(C)c2sc(CO)cc12 [compound 467, (1,3‐dimethyl‐1H‐thieno[2,3‐c]pyrazol‐5‐yl)methanol] | – | – | Tb Ino1 Tm Shift [˚C] (TbINO1): 0.35 ± 0.09 °C; HeLa Cells Alamar Blue (HeLa cells): 67.5 ± 16.4 percentage of controls; A549 Cells Alamar Blue (A549 cells): 70.7 percentage of controls |
| 0.39 ± 0.07 | COC(=O)Cc1ccsc1 [compound 238, methyl 2‐(3‐thienyl)acetate] | 111 ± 9.9 | 64.7 | – |
| 0.24 ± 0.07 | NC1CCSCC1 [compound 45, tetrahydrothiopyran‐4‐ylamine] | 88.6 ± 3.1 | 95.6 | – |
| 0.46 ± 0.12 | O=C(O)c1cccc(-c2ccncc2)c1 [compound 614, 3‐pyrid‐4‐ylbenzoic acid] | 81.2 ± 15.9 | 66.3 | – |
| – | OCc1ccc2ccccc2n1 [compound 256, 2-quinolinylmethanol] | 99.2 ± 19.5 | 119 | ΔTm at 1000 µM (TbINO1; read-out: TbIno1 Tm shift [°C]): 2.2 ± 0.06 °C; viability at 500 µM (HeLa cells; [3]): 99.2 ± 19.5%; CC50 (HeLa cells): 836 ± 68 µM |
| 0 | c1cncc(Cn2cccc2)c1 [compound 248, 3‐(1H‐pyrrol‐1‐ylmethyl)pyridine] | 91.3 ± 11.9 | 86.6 | – |
| 0.22 ± 0.08 | CCCc1ccc(C(C)=O)cc1 [compound 288, 1‐(4‐propylphenyl)ethan‐1‐one] | 72.2 ± 17.1 | 90.6 | – |
| – | OCc1ccc(-c2cccs2)s1 [compound 598, 2,2′-bithien-5-ylmethanol] | 78 ± 11.6 | 86.3 | ΔTm at 1000 µM (TbINO1; read-out: TbIno1 Tm shift [°C]): 1.72 ± 0.06 °C; viability at 500 µM (HeLa cells; [3]): 78 ± 11.6% |
| 0.44 ± 0.08 | OCc1cn2ccccc2n1 [compound 172, imidazo[1,2‐a]pyridin‐2‐ylmethanol] | 86.6 ± 15.1 | 97.5 | – |
| – | CC1(C)Cc2cccc(C(=O)O)c2O1 [compound 564, 2,2‐dimethyl‐2,3‐dihydro‐1‐benzofuran‐7‐carboxylic acid] | – | – | Tb Ino1 Tm Shift [˚C] (TbINO1): 0.35 ± 0.07 °C; HeLa Cells Alamar Blue (HeLa cells): 91.1 ± 19 percentage of controls; A549 Cells Alamar Blue (A549 cells): 101.2 percentage of controls |
| 0.12 ± 0.07 | CC(=O)Nc1ccc2c(c1)CCC2 [compound 400, N1‐(2,3‐dihydro‐1H‐inden‐5‐yl)acetamide] | 23.9 ± 13.6 | 99.3 | – |
| 0.7 ± 0.07 | Cc1nc(C(N)=S)cs1 [compound 252, 2‐methyl‐1,3‐thiazole‐4‐carbothioamide] | 90.3 ± 10.7 | 102 | – |
